According to article PMC8869358, “High-Throughput Chemical Screening and Structure-Based Models to Predict hERG Inhibition” (Biology, 2022):
Structures can show the parent of a compound that is named as a salt.

What follows are molecules tested against hERG (Homo sapiens, UniProt Q12809) (assay: cell-based). Conditions: not given.
Chain of hERG (Q12809 whole entry): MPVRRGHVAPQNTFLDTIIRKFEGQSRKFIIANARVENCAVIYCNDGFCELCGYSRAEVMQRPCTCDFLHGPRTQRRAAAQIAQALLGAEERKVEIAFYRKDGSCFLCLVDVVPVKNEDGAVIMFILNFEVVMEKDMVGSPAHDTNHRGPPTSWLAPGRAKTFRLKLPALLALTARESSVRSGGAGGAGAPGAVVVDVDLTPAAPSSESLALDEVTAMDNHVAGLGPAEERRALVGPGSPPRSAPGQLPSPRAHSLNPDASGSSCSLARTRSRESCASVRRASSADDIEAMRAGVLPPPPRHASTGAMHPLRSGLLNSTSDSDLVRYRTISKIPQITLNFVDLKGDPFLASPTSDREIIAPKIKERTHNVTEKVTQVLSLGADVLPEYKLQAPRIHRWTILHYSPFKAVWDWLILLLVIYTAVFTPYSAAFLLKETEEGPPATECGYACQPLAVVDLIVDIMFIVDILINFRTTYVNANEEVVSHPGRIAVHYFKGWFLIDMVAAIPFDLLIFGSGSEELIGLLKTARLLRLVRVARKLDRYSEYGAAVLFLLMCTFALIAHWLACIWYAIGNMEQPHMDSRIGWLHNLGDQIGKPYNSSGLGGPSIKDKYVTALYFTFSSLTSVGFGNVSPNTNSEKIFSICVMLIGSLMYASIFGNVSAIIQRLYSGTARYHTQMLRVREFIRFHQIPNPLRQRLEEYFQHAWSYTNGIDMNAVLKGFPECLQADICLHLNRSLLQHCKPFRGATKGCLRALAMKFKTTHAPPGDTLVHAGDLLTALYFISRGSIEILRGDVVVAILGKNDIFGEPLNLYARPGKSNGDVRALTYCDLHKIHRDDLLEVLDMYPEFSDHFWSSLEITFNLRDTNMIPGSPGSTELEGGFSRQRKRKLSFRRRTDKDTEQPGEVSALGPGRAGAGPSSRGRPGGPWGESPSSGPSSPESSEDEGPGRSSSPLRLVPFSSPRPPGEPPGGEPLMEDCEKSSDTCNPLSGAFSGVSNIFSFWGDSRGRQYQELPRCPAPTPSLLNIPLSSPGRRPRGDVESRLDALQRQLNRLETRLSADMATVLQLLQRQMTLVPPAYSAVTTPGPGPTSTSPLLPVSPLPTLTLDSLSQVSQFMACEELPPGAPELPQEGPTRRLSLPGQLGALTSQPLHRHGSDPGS

Compound	IC50 [µM]
O[C@@H](COc1cccc2ncccc12)CN1CCN([C@@H]2c3ccccc3[C@@H]3[C@H](c4ccccc42)C3(F)F)CC1 [LY335979 trihydrochloride]	12

Same assay, conditions: (-LOG10(IC50), µM)

Compound	IC50 [µM]
CC(=O)C1(C)CC2=C(CCCC2(C)C)CC1C (centres unmarked) [Isocyclemone E]	40
Cc1nnc2n1-c1sc(CCc3ccc(CC(C)C)cc3)cc1C(c1ccccc1Cl)=NC2C (centres unmarked) [Israpafant]	19
CN1[C@@H]2CC[C@H]1C[C@@H](NC(=O)n1c(=O)[nH]c3ccccc31)C2 [Itasetron]	21.3
O=C1C2(Cl)C3(Cl)C4(Cl)C(Cl)(Cl)C5(Cl)C3(Cl)C1(Cl)C5(Cl)C24Cl (centres unmarked) [Kepone]	12.7
O=C(c1ccc(F)cc1)C1CCN(CCn2c(=O)[nH]c3ccccc3c2=O)CC1 [Ketanserin]	2.68
Cc1c(OCC(F)(F)F)ccnc1C[S+]([O-])c1nc2ccccc2[nH]1 (centres unmarked) [Lansoprazole]	43.6
CCCCCCCCCCCCN(CCO)CCO [Lauryldiethanolamine]	11.8
COC(=O)C1=C(C)NC(COC(N)=O)=C(C(=O)OC(C)C)C1c1cccc(Cl)c1Cl (centres unmarked) [Lemildipine]	23.9
COC(=O)C1=C(C)NC(C)=C(C(=O)OC(C)(C)CN(C)CCC(c2ccccc2)c2ccccc2)C1c1cccc([N+](=O)[O-])c1 (centres unmarked) [Lercanidipine hydrochloride]	3.25
CC(C)=CCC[C@](C)(O)[C@@H]1CC=C(C)CC1 [Levomenol]	38.9
C[C@@H]1CC(=O)NN=C1c1ccc(NN=C(C#N)C#N)cc1 [Levosimendan]	5.67
C=CC(C)(CCC=C(C)C)OC(=O)c1ccccc1 (centres unmarked) [Linalyl benzoate]	20.3
COc1ccc(CN2CCN(C(c3ccc(F)cc3)c3ccc(F)cc3)CC2)c(OC)c1OC [Lomerizine dihydrochloride]	0.849
CCCCCN(CCCCC)C(=O)C(CCC(=O)O)NC(=O)c1ccc(Cl)c(Cl)c1 (centres unmarked) [Lorglumide sodium]	9.52
CN1CCN(C2=Nc3ccccc3Oc3ccc(Cl)cc32)CC1 [Loxapine succinate]	12
N#C/C(=C1/SC[C@@H](c2ccc(Cl)cc2Cl)S1)n1ccnc1 [Luliconazole]	3.13
CCCCN(CCCC)CC(O)c1cc(Cl)cc2c1-c1ccc(Cl)cc1/C2=C/c1ccc(Cl)cc1 (centres unmarked) [Lumefantrine]	3.65
CCn1nc(Cc2ccccc2)cc1C1CCN(C[C@H]2C[C@H](N(C)[C@@H](C(=O)O)C(C)C)C[C@@H]2c2cccc(F)c2)CC1 [MK-578]	20.3
CN(C)c1ccc(C(=C2C=CC(=[N+](C)C)C=C2)c2ccccc2)cc1 [Malachite green oxalate]	3.51
CN(C)c1ccc(C(=C2C=CC(=[N+](C)C)C=C2)c2ccccc2)cc1 [Malachite green]	4.25
COC(=O)C1=C(C)NC(C)=C(C(=O)OCCN2CCN(C(c3ccccc3)c3ccccc3)CC2)C1c1cccc([N+](=O)[O-])c1 (centres unmarked) [Manidipine dihydrochloride]	7
CN1C2CCC(C)(C)C1CC(OC(=O)C(O)(c1cccs1)c1cccs1)C2 (centres unmarked) [Mazaticol]	21.3
CC(Cc1ccccc1)NCCCCl (centres unmarked) [Mefenorex]	16.3
CCOC(=O)C1=NN(c2ccc(Cl)cc2Cl)C(C)(C(=O)OCC)C1 (centres unmarked) [Mefenpyr-diethyl]	46.2
COC(=O)[C@H]1[C@H]2C[C@@H]3c4[nH]c5cc(OC)ccc5c4CCN3C[C@H]2C[C@@H](OC(=O)COc2ccc(OC)cc2)[C@@H]1OC [Mefeserpine]	0.786
CCCCC/C=C\C/C=C\CCCCCCCC(=O)NC(C)c1ccccc1 (centres unmarked) [Melinamide]	21.3
Cc1cc(O)c2ccccc2c1O [Menadiol]	2.68

Compound	IC50 [µM]
CC1=CC(=O)c2ccccc2C1=O [Menadione]	7.28
CC1CCC(C(C)C)C(OC(=O)c2ccccc2N)C1 (centres unmarked) [Menthyl anthranilate]	30.5
N#Cc1ccc(CC(=NNC(=O)Nc2ccc(OC(F)(F)F)cc2)c2cccc(C(F)(F)F)c2)cc1 [Metaflumizone]	13.3
CC1(C)CCC(Cc2ccc(Cl)cc2)C1(O)Cn1cncn1 (centres unmarked) [Metconazole]	50.9
COc1ccc(C(c2ccc(OC)cc2)C(Cl)(Cl)Cl)cc1 [Methoxychlor]	20.5
Cc1cc(C(C)(C)CC(C)(C)C)ccc1OCCOCC[N+](C)(C)Cc1ccccc1 [Methylbenzethonium chloride]	0.756
N#CSCSC#N [Methylene bis(thiocyanate)]	50.1
CCCCCCCC[N+](C)(CCCCCCCC)CCCCCCCC [Methyltrioctylammonium chloride]	0.616
CSc1ccc2c(c1)C(N1CCN(C)CC1)Cc1ccccc1S2 (centres unmarked) [Metitepine]	1.15
CN1CCCC(CC2c3ccccc3Sc3ccccc32)C1 (centres unmarked) [Metixene hydrochloride]	4.77
COc1ccc(C(=O)c2ccc(C)cc2)c(O)c1 [Mexenone]	45.9
CCCCCCCCCCCCCCCCCCNC(=O)OC1CCN(C(=O)OC[C@H](COC(=O)N(Cc2cccc[n+]2CC)C(=O)c2ccccc2OC)OC)CC1 [Minopafant]	19
CN(c1nccc(=O)[nH]1)C1CCN(c2nc3ccccc3n2Cc2ccc(F)cc2)CC1 [Mizolastine]	2.21
O=C(CCCN1CCN(c2ccc(F)cc2)CC1)NC1c2ccccc2CSc2ccccc21 (centres unmarked) [Monatepil]	2.01
Cc1ccsc1/C=C/C1=NCCCN1C [Morantel tartrate]	19.7
O=C(OCCN1CCOCC1)c1cccnc1Nc1cccc(C(F)(F)F)c1 [Morniflumate]	10.3
O=C1NC2CCCCN2C12CCN(CCCN1c3ccccc3CCc3ccc(Cl)cc31)CC2 (centres unmarked) [Mosapramine]	0.882
COc1c(C(C)(C)C)cc([N+](=O)[O-])c(C)c1[N+](=O)[O-] [Musk ambrette]	20.5
CCCCCCCCCCCCCCNCCO [Myralact]	12.5
CCCCCCCCCCCCCC[N+](C)(C)C [Myristyltrimethylammonium chloride]	15
O=C1C=CC(=O)N1c1cccc(N2C(=O)C=CC2=O)c1 [N,N'-1,3-Phenylenedimaleimide]	49
CCC(C)Nc1ccc(NC(C)CC)cc1 (centres unmarked) [N,N'-Bis(1-methylpropyl)-1,4-benzenediamine]	12.5
c1ccc(Nc2ccc(Nc3ccccc3)cc2)cc1 [N,N'-Diphenyl-p-phenylenediamine]	41
CCCCCCCCCCCCCCCCCC[N+](C)(C)C [N,N,N-Trimethyloctadecan-1-aminium chloride]	17.4
CCN(CC)c1ccc(N)cc1 [N,N-Diethyl-p-phenylenediamine]	35.6
CCCCCCCCCCCCCCCCCC[N+](C)(C)Cc1ccccc1 [N,N-Dimethyl-N-benzyl-N-octadecylammonium chloride]	4.41
CCCCCCC(C)Nc1ccc(Nc2ccccc2)cc1 (centres unmarked) [N-(1-Methylheptyl)-N'-phenyl-1,4-benzenediamine]	34.7

Compound	IC50 [µM]
NCCNc1cccc2ccccc12 [N-(1-Naphthyl)ethylenediamine dihydrochloride]	40.2
CC(C)CC(C)N(c1ccccc1)c1ccc(N)cc1 (centres unmarked) [N-(4-Methylpentan-2-yl)-N-phenylbenzene-1,4-diamine]	27.5
CCN(CCN)c1cccc(C)c1 [N-Ethyl-N-(3-methylphenyl)ethane-1,2-diamine]	49
CC(C)Nc1ccc(Nc2ccccc2)cc1 [N-Isopropyl-N'-phenyl-p-phenylenediamine]	28.5
C#CCN(C)CCCOc1ccc(Cl)cc1Cl [N-Methyl-N-propargyl-3-(2,4-dichlorophenoxy)propylamine hydrochloride]	8.82
CCCCCCCCN(C)CCCCCCCC [N-Methyldioctylamine]	3.25
c1ccc(Nc2cccc3ccccc23)cc1 [N-Phenyl-1-naphthylamine]	33.4
CCCCCCCCCCCC(=O)NCCCN(C)C [N-[3-(Dimethylamino)propyl]dodecanamide]	14.3
O=C(N[C@@H]1N=C(c2ccccc2F)c2cccc3c2N(CC3)C1=O)c1cc2ccccc2[nH]1 [N-[(3R)-1-(2-Fluorophenyl)-4-oxo-3,4,6,7-tetrahydro[1,4]diazepino[6,7,1-hi]indol-3-yl]-1H-indole-2-carboxamide]	8.82
CCN(CC)CCOC(=O)C(Cc1cccc2ccccc12)CC1CCCO1 (centres unmarked) [Nafronyl oxalate]	8.99
COc1ccccc1N1CCN(CC(O)COc2cccc3ccccc23)CC1 (centres unmarked) [Naftopidil]	1.69
C[C@]12CC[C@H]3[C@@H](CCC4=CC(=O)CC[C@@H]43)[C@@H]1CC[C@@H]2OC(=O)CCC1CCCCC1 [Nandrolone cyclohexylpropionate]	15.1
C[C@]12CC[C@H]3[C@@H](CCC4=CC(=O)CC[C@@H]43)[C@@H]1CC[C@@H]2OC(=O)CCc1ccco1 [Nandrolone furylpropionate]	12
C[C@]12CC[C@H]3[C@@H](CCC4=CC(=O)CC[C@@H]43)[C@@H]1CC[C@@H]2OC(=O)CCc1ccccc1 [Nandrolone phenpropionate]	12.5
CCc1nn(CCCN2CCN(c3cccc(Cl)c3)CC2)c(=O)n1CCOc1ccccc1 [Nefazodone hydrochloride]	1.57
COc1ccc(S(=O)(=O)N2C(=O)[C@@](c3ccccc3OC)(N3C[C@H](O)C[C@H]3C(=O)N(C)C)c3cc(Cl)ccc32)c(OC)c1 [Nelivaptan]	54.9
CC(C)(COC(=O)c1ccccc1)COC(=O)c1ccccc1 [Neopentyl glycol dibenzoate]	13.8
C=CC(C)(O)CCC=C(C)CCC=C(C)C (centres unmarked) [Nerolidol]	47.1
CCCCCOc1ccccc1/C(=C\SC)n1ccnc1 [Neticonazole]	20.5
CO[C@]12C[C@@H](COC(=O)c3cncc(Br)c3)CN(C)[C@@H]1Cc1cn(C)c3cccc2c13 [Nicergoline]	1.45
CNCCC(Oc1ccccc1OC)c1ccccc1 (centres unmarked) [Nisoxetine]	9.52
O=[N+]([O-])c1ccc(Oc2ccc(Cl)cc2Cl)cc1 [Nitrofen]	18.9
CC(C)OC(=O)c1cc(C(=O)OC(C)C)cc([N+](=O)[O-])c1 [Nitrothal-isopropyl]	40.6
N=C(N)NN=C(/C=C/c1ccc([N+](=O)[O-])o1)/C=C/c1ccc([N+](=O)[O-])o1 [Nitrovin]	2.3
CCN(CC)Cc1nccn1-c1ccc([N+](=O)[O-])cc1C(=O)c1ccccc1Cl [Nizofenone fumarate]	6.74
